Where “and” joins values, the source holds several entries; their conditions need not be identical. Equal values may be shown once. Toxic doses and inconclusive results are not listed.
System: P388 leukemia ip, CD2F1 mice, survival T/C
Assay: NCI In Vivo Anticancer Drug Screen. Data for tumor model P388 Leukemia (intraperitoneal) in CD2F1 (CDF1) mice
Settings: endpoint: median survival time, higher = longer survival
In short: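 Mice carrying the transplanted tumor received test compound or vehicle. Survival was recorded in each group, and the value is the treated-group measurement divided by that of the vehicle-treated control group.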

[1] = dose: 100.0 mg/kg/injection, schedule: Q01DX009 (ip), vehicle: saline
[2] = dose: 200.0 mg/kg/injection, schedule: Q01DX009 (ip), vehicle: saline
[3] = dose: 400.0 mg/kg/injection, schedule: Q01DX009 (ip), vehicle: saline
[4] = dose: 50.0 mg/kg/injection, schedule: Q01DX009 (ip), vehicle: saline
[5] = dose: 25.0 mg/kg/injection, schedule: Q01DX005 (ip), vehicle: Klucel (hydroxypropylcellulose) (HPC)
[6] = dose: 50.0 mg/kg/injection, schedule: Q01DX005 (ip), vehicle: Klucel (hydroxypropylcellulose) (HPC)
[7] = dose: 100.0 mg/kg/injection, schedule: Q01DX005 (ip), vehicle: Klucel (hydroxypropylcellulose) (HPC)
[8] = dose: 200.0 mg/kg/injection, schedule: Q01DX005 (ip), vehicle: Klucel (hydroxypropylcellulose) (HPC)
[9] = dose: 100.0 mg/kg/injection, schedule: Q01DX009 (ip), vehicle: saline with Tween-80
[10] = dose: 100.0 mg/kg/injection, schedule: Q04DX002 (ip), vehicle: saline with Tween-80
[11] = dose: 200.0 mg/kg/injection, schedule: Q04DX002 (ip), vehicle: saline with Tween-80
[12] = dose: 400.0 mg/kg/injection, schedule: Q04DX002 (ip), vehicle: saline with Tween-80
[13] = dose: 50.0 mg/kg/injection, schedule: Q01DX005 (ip), vehicle: saline with Tween-80
[14] = dose: 100.0 mg/kg/injection, schedule: Q01DX005 (ip), vehicle: saline with Tween-80
[15] = dose: 200.0 mg/kg/injection, schedule: Q01DX005 (ip), vehicle: saline with Tween-80
[16] = dose: 50.0 mg/kg/injection, schedule: Q01DX009 (ip), vehicle: Klucel (hydroxypropylcellulose) (HPC)
[17] = dose: 100.0 mg/kg/injection, schedule: Q01DX009 (ip), vehicle: Klucel (hydroxypropylcellulose) (HPC)
[18] = dose: 200.0 mg/kg/injection, schedule: Q01DX009 (ip), vehicle: Klucel (hydroxypropylcellulose) (HPC)

COc1cc(C(=O)NCCS(=O)(=O)O)cc(OC)c1OC
T/C [1]: 109 % of control
T/C [2]: 109 % of control
T/C [3]: 105 % of control

O=NNc1ncccc1OCc1ccccc1
T/C (dose: 12.5 mg/kg/injection, schedule: Q01DX009 (ip), vehicle: water): 111 % of control and 112 % of control

COc1cc(C)c(S(C)=O)cc1OC (stereo not given)
T/C [4]: 98 % of control
T/C [1]: 90 % of control
T/C [2]: 98 % of control

CCC1=C[C@H]2CN(CCc3c([nH]c4ccccc34)[C@@](C(=O)OC)(c3cc4c(cc3OC)N(C)[C@H]3C(C(=O)OC)=C[C@]5(CC)C=CCN6CC[C@]43[C@@H]65)C2)C1
T/C (dose: 1.0 mg/kg/injection, schedule: Q01DX001 (ip), vehicle: other): 101 % of control
T/C (dose: 2.0 mg/kg/injection, schedule: Q01DX001 (ip), vehicle: other): 99 % of control
T/C (dose: 4.0 mg/kg/injection, schedule: Q01DX001 (ip), vehicle: other): 105 % of control
T/C (dose: 8.0 mg/kg/injection, schedule: Q01DX001 (ip), vehicle: other): 107 % of control and 120 % of control
T/C (dose: 16.0 mg/kg/injection, schedule: Q01DX001 (ip), vehicle: distilled water + Tween-80): 124 % of control
T/C (dose: 16.0 mg/kg/injection, schedule: Q01DX001 (ip), vehicle: other): 113 % of control
T/C (dose: 64.0 mg/kg/injection, schedule: Q01DX001 (ip), vehicle: distilled water + Tween-80): 171 % of control
T/C (dose: 64.0 mg/kg/injection, schedule: Q01DX001 (ip), vehicle: other): 121 % of control
T/C (dose: 128.0 mg/kg/injection, schedule: Q01DX001 (ip), vehicle: other): 183 % of control

Cc1ncn[nH]1
T/C [1]: 103 % of control
T/C [2]: 106 % of control
T/C [3]: 100 % of control

CC(=NCc1ccccc1)Nc1ccc(NC(=O)c2ccc(C(=O)Nc3ccc(NC(C)=NCc4ccccc4)cc3)cc2)cc1
T/C [5]: 98 % of control
T/C [6]: 95 % of control
T/C [7]: 94 % of control
T/C [8]: 99 % of control

C/C(CC(c1ccccc1)N1CCc2ccccc2C1)=N/O (stereo not given)
T/C [9]: 100 % of control
T/C (dose: 200.0 mg/kg/injection, schedule: Q01DX009 (ip), vehicle: saline with Tween-80): 100 % of control
T/C (dose: 400.0 mg/kg/injection, schedule: Q01DX009 (ip), vehicle: saline with Tween-80): 100 % of control

CC(=O)C1(O)CCC2(O)C3(O)CC=C4CC(O)CCC4(C)C3CC(OC(=O)c3ccc(O)cc3)C12C (stereo not given)
T/C (dose: 11.75 mg/kg/injection, schedule: Q01DX005 (ip), vehicle: distilled water + Tween-80 + alcohol): 93 % of control
T/C (dose: 23.5 mg/kg/injection, schedule: Q01DX005 (ip), vehicle: distilled water + Tween-80 + alcohol): 94 % of control
T/C (dose: 47.0 mg/kg/injection, schedule: Q01DX005 (ip), vehicle: distilled water + Tween-80 + alcohol): 95 % of control
T/C (dose: 94.0 mg/kg/injection, schedule: Q01DX005 (ip), vehicle: distilled water + Tween-80 + alcohol): 94 % of control

NC(=Nc1ccccc1)N(c1ccccc1)c1nc(=S)ss1
T/C [10]: 104 % of control
T/C [11]: 93 % of control
T/C [12]: 87 % of control

O=c1[nH][nH]c(O)c1-c1ccc(-c2c(O)[nH][nH]c2=O)cc1
T/C [6]: 105 % of control
T/C [7]: 105 % of control
T/C [8]: 101 % of control

O=C(C/[N+]([O-])=C/c1ccccc1)OCc1ccccc1
T/C (dose: 12.5 mg/kg/injection, schedule: Q01DX009 (ip), vehicle: other): 112 % of control
T/C (dose: 25.0 mg/kg/injection, schedule: Q01DX009 (ip), vehicle: other): 112 % of control
T/C (dose: 50.0 mg/kg/injection, schedule: Q01DX009 (ip), vehicle: other): 95 % of control
T/C (dose: 100.0 mg/kg/injection, schedule: Q01DX009 (ip), vehicle: other): 88 % of control
T/C (dose: 200.0 mg/kg/injection, schedule: Q01DX009 (ip), vehicle: other): 104 % of control

CCOC(=O)Cc1c(C)noc1OC
T/C (dose: 25.0 mg/kg/injection, schedule: Q01DX005 (ip), vehicle: saline with Tween-80): 106 % of control
T/C [13]: 97 % of control
T/C [14]: 99 % of control
T/C [15]: 97 % of control

C[C@]12CCNC(=O)C=C1CC[C@@H]1C2CC[C@@]2(C)C1CC[C@@H]2OC(=O)COc1ccc(N(CCCl)CCCl)cc1 (stereo not given in full)
T/C [10]: 159 % of control
T/C [11]: 199 % of control
T/C [12]: 225 % of control

CCN(CC)CCN(C(=O)C1c2ccccc2Oc2ccccc21)c1ccccc1
T/C (dose: 12.5 mg/kg/injection, schedule: Q01DX005 (ip), vehicle: Klucel (hydroxypropylcellulose) (HPC)): 106 % of control
T/C [5]: 100 % of control
T/C [6]: 100 % of control and 94 % of control

C=C(C)[C@@H]1CC[C@]2(C(=O)OC)CC[C@]3(C)[C@H](CC[C@@H]4[C@@]5(C)CC[C@H](O)C(C)(C)[C@@H]5CC[C@]43C)[C@@H]12
T/C (dose: 25.0 mg/kg/injection, schedule: Q01DX009 (ip), vehicle: Klucel (hydroxypropylcellulose) (HPC)): 107 % of control
T/C [16]: 102 % of control
T/C [17]: 98 % of control
T/C [18]: 102 % of control

CP1(=S)CCC2=C1c1ccc(O)cc1CC2 (stereo not given)
T/C [4]: 100 % of control
T/C [1]: 100 % of control
T/C [2]: 101 % of control

O=C(O)Cc1cc(Cl)ccc1C(=O)O
T/C [13]: 97 % of control
T/C [14]: 97 % of control
T/C [15]: 97 % of control

CCO/C(C)=N\P(=O)(Oc1ccccc1)Oc1ccccc1
T/C (dose: 12.5 mg/kg/injection, schedule: Q01DX009 (ip), vehicle: distilled water + Tween-80): 105 % of control
T/C (dose: 25.0 mg/kg/injection, schedule: Q01DX009 (ip), vehicle: distilled water + Tween-80): 102 % of control
T/C (dose: 50.0 mg/kg/injection, schedule: Q01DX009 (ip), vehicle: distilled water + Tween-80): 110 % of control
T/C (dose: 100.0 mg/kg/injection, schedule: Q01DX009 (ip), vehicle: distilled water + Tween-80): 102 % of control

CC(=O)NC1C(Nc2ccc(S(=O)(=O)Nc3nccc(C)n3)cc2)OC(CO)C(O)C1O (stereo not given)
T/C (dose: 50.0 mg/kg/injection, schedule: Q01DX005 (ip), vehicle: saline): 100 % of control
T/C (dose: 100.0 mg/kg/injection, schedule: Q01DX005 (ip), vehicle: saline): 105 % of control
T/C (dose: 200.0 mg/kg/injection, schedule: Q01DX005 (ip), vehicle: saline): 92 % of control

CC1=CCC(=O)O1
T/C (dose: 50.0 mg/kg/injection, schedule: Q01DX009 (ip), vehicle: suspension in saline): 100 % of control
T/C (dose: 100.0 mg/kg/injection, schedule: Q01DX009 (ip), vehicle: suspension in saline): 99 % of control and 88 % of control
T/C (dose: 200.0 mg/kg/injection, schedule: Q01DX009 (ip), vehicle: suspension in saline): 101 % of control and 87 % of control
T/C (dose: 400.0 mg/kg/injection, schedule: Q01DX009 (ip), vehicle: suspension in saline): 98 % of control and 101 % of control

Nc1n[nH]c(N)c1N=Nc1ccccc1
T/C [16]: 98 % of control
T/C [17]: 99 % of control
T/C [18]: 93 % of control
T/C (dose: 400.0 mg/kg/injection, schedule: Q01DX009 (ip), vehicle: Klucel (hydroxypropylcellulose) (HPC)): 94 % of control

Nc1nc(N)c(Nc2ccc(Cl)cc2)c(Cl)n1
T/C (dose: 25.0 mg/kg/injection, schedule: Q01DX001 (ip), vehicle: saline with Tween-80): 102 % of control
T/C (dose: 50.0 mg/kg/injection, schedule: Q01DX001 (ip), vehicle: saline with Tween-80): 101 % of control
T/C (dose: 100.0 mg/kg/injection, schedule: Q01DX001 (ip), vehicle: saline with Tween-80): 95 % of control

CCCCCc1nc(N)nc(-c2nc(N)nc(CCCCC)c2C)c1C
T/C (dose: 60.0 mg/kg/injection, schedule: Q01DX005 (ip), vehicle: saline): 96 % of control
T/C (dose: 120.0 mg/kg/injection, schedule: Q01DX005 (ip), vehicle: saline): 100 % of control

O=c1c2ccccc2sc2cccc(Sc3ccccc3)c12
T/C [9]: 95 % of control
T/C (dose: 100.0 mg/kg/injection, schedule: Q04DX003 (ip), vehicle: saline with Tween-80): 95 % of control
T/C (dose: 200.0 mg/kg/injection, schedule: Q04DX003 (ip), vehicle: saline with Tween-80): 90 % of control
T/C (dose: 400.0 mg/kg/injection, schedule: Q04DX003 (ip), vehicle: saline with Tween-80): 90 % of control
